Measurements reported in patent US20240385168A1, “SEMICONDUCTOR-BASED MEASUREMENT DEVICES” (CytoTronics, priority 2023, published 2024).
“Also recorded” adds a separate entry of the source.

Assays:
Caco-2 cells [1] = assay: Caco-2 impedance barrier function measurements (341 compound screen, dose response, Amonafide analogues); type: cell-based, human; settings: for barrier increase (maximum VF 250 Hz) over the 48-hours: screen at 10 μM; for change in Caco-2 barrier function at 12 hours post-compound application: 10 μM, versus control
Experimental: To execute and analyze the screens, cells were seeded on five CMOS 96-wellplates, allowed to grow for 24 hours for A549 or 48 hours for Caco-2, compounds were added at 10 μM in 1% DMSO via a half media swap using an OpenTrons liquid handling robot. Effects were measured for 48 hours, with impedance measurements taken every 15 minutes. The many field/frequency and calculated parameters were then normalized to a timepoint one hour before compound addition. The array of normalized parameters at timepoints logarithmically spaced from compound addition to +48 hours were then used for a principal component analysis (PCA) and unbiased clustering using the top 20 PCA dimensions.
Compound treatments were performed using a half media exchange. To prepare for compound addition, half the media from each well was removed. Compounds were prepared at 2× concentration in cell culture media, and the 2× compound solution was then added to the wells. Care was taken to keep DMSO concentration below 1%, compound dilutions were performed with a constant DMSO concentration. Compound in media was temperature- and CO2-equilibrated prior to addition. All compounds including the 341 compound library were obtained from Selleckchem Chemicals (Houston, TX). For the screening analysis, the pathway and target information provided by Selleckchem Chemicals was curated together.
In the second approach, rather than comparing 5 measurement parameters, all field and calculation parameters were used to perform an unbiased phenotypic profiling with a larger compound library. A total of 341 compounds were chosen as a sub-set of an FDA approved library and applied on two cell types, A549 and Caco-2. At least two compounds per target were chosen for conserved phenotype effects. For the screens, compounds were added 24 or 48 hours post cell seeding and measured up to 48 hours after the compound addition. Time normalization, a principal component analysis (PCA), and unbiased clustering were sequentially performed on the high-dimensional data readouts (VF & LF magnitudes, phase, and DC). This unbiased approach ensured compound separation based solely on functional and morphological effects of the cells, with no bias of the targets/pathways of the compounds.

Caco-2 cells [2] = assay: as above; type: cell-based, human; settings: dose response 1 nM to 10 μM
ZO-1 in Caco-2 cells = assay: Immunofluorescence imaging and quantification of ZO-1 in Caco-2 cells; type: cell-based, human; settings: 48 hours post-compound treatment
Experimental: For immunofluorescence imaging, cells were grown on coverslips and then either allowed to grow for 48 hours or treated with relevant compounds for 48 hours. Cells were then fixed in 4% paraformaldehyde, washed, permeabilized with 0.5% Triton-X 100 in PBS, and then subjected to antibody incubation. Antibodies used were anti-E-Cadherin (obtained from Cell Signaling Technology, Danvers, MA, as cat no: 3195T), anti-ZO1 (obtained from Thermo Fisher, Waltham, MA, as cat no:617300) and anti-Occludin (obtained from Thermo Fisher as cat no: 331500). Alexa Fluor 488 and 568 secondary antibodies were used. Coverslips were mounted in Vectashield® antifade mounting medium with DAPI.
Imaging was performed using a Yokogawa Wi spinning disk confocal on an inverted Nikon Ti fluorescence microscope equipped with Hamamatsu ORCA-Fusion BT CMOS camera (6.5 μm^2 photodiode), Lumencor SOLA fluorescence light source, and Nikon LUN-F XL solid state laser combiner: 405 nm (80 mW), 445 nm (35 mW), 488 nm (80 mW), 514 nm (50 mW), 561 nm (65 mW), and 640 nm (60 mW). For imaging, the widefield modality of the microscope was typically used, and all imaging was done using a 20× objective. Acquisition was performed using consistent exposure across samples to enable intensity quantification. Images were processed using the open source image processing software FIJI.
Quantification of ZO-1 in the cell-membrane and nucleus was performed by manually defining ROIs for the cell membrane and nucleus. Mean integrated intensity was calculated within the ROI. All quantification was performed in raw, unprocessed images.

MDCK cells = assay: Live-cell impedance measurements of MDCK cells after compound treatment (water transport, doming); type: cell-based, canine
Experimental: (§1) Impedance measurements were performed with two different electric field configurations named vertical field (VF) and lateral field (LF) and at four different frequencies of 250 Hz, 1 kHz, 4 kHz, and 16 kHz, as shown in FIG. 27A. In total, 9 impedance parameter maps were measured per field configuration, including magnitude and phase for the 4 frequencies and a Direct Current (DC, 0 Hz) magnitude. […] Connections were observed between biological information and measurements at frequency magnitudes, phases, and DC.
(§2) To perform field-based impedance measurements across multiple frequencies, a voltage stimulation was applied which is the summation of the four different frequency signals and return currents were measured using a transimpedance amplifier (TIA) configuration with a feedback gain of 18 MΩ. The magnitudes of the AC voltage signals were scaled to create similar output amplitudes that were measured by the TIA configuration (0.2 V/250 Hz, 0.08 V/1 kHz, 0.04 V/4 kHz, and 0.02 V/16 kHz for lateral field, 0.25 V/250 Hz, 0.1 V/1 kHz, 0.04 V/4 kHz, and 0.025 V/16 kHz for vertical field). Six of the 96 wells were scanned at a time taking 2.5 s, resulting in a total scan time across the well plate of 40 s. A fast Fourier transform (FFT) was used to extract the magnitude and phase of each of the four frequencies and the DC component—9 impedance parameter maps for each field configuration.
(§3) A reference impedance map was used to determine the location of cells: a threshold was set above the electrodes' default impedance in solution, and the presence of a cell above an electrode then increased the impedance beyond the threshold for detection. Typically, the VF 4 kHz map provided the best contrast for generating the cell mask. For magnitude, phase, and DC, the median value of electrodes with cells was then calculated. An additional epoxy mask was calculated in a similar manner to remove electrodes which had spillover epoxy from well plate attachment. Before each cell plating, a reference measurement was taken in empty culture media to calculate the epoxy mask.
(§4) Transient features such as motility and migration were generated from impedance videos through a root-mean-square (RMS) calculation. The difference between two unmasked image frames was taken (the epoxy mask was still used if applicable), then the RMS calculation was performed across the pixels of the difference map. To normalize for changes in magnitude, the calculated RMS was then divided by the median value of the cell-masked well distribution. Typically, the VF 4 kHz map was used for the RMS signal generation.
(§5) Compound treatments were performed using a half media exchange. To prepare for compound addition, half the media from each well was removed. […]

[3] = tested on: autosomal dominant polycystic kidney disease (ADPKD); settings: cited from earlier work
many cell types = assay: Vertical field (VF) impedance across many cell types; type: cell-based
Experimental: as §1, §2

MDA-MB-231 cells = assay: Live-cell impedance measurements of MDA-MB-231 cells after compound treatment; type: cell-based, human
Experimental: as §1, §2, §3, §4, §5

Cc1cc(C2CCCCC2)n(O)c(=O)c1 [Ciclopirox]
barrier increase (maximum VF 250 Hz) over the 48-hours (Caco-2 cells [1]): largest barrier increase; also recorded: increased the barrier; also recorded: highest observed increase in barrier
time course of barrier increase (Caco-2 cells [2]): more gradual increase in barrier
ZO-1 levels and distribution (membrane, nucleus) (ZO-1 in Caco-2 cells): did not affect ZO-1 distribution or expression

COc1cc(Nc2ncc3c(n2)-c2ccc(Cl)cc2C(c2c(F)cccc2OC)=NC3)ccc1C(=O)O [Alisertib]
cell surface attachment (MDCK cells): sharp decrease
transepithelial water transport (MDCK cells): accelerated
domes (doming) (MDCK cells; Alisertib 1 μM, Bosutinib 10 μM): increased doming; also recorded: Domes were only observed
water transport detachment (LF 16 kHz) with respect to the control (MDCK cells; mean±s.d. for 3 wells): accelerated
ADPKD in animal models [3]: exacerbate

COc1ccc(C[C@H]2NC[C@H](O)[C@H]2OC(C)=O)cc1 [Anisomycin]
VF (vertical field impedance) (many cell types): increases in VF

CN(C)CCN1C(=O)c2cccc3cc(NC(N)=O)cc(c23)C1=O [UNBS5162]
change in Caco-2 barrier function at 12 hours post-compound application (Caco-2 cells [1]): did not affect the barrier
ZO-1 levels and distribution (membrane, nucleus) (ZO-1 in Caco-2 cells): did not affect ZO-1 levels or distribution

C=C1[C@@H](C)[C@H]2[C@H](Cc3ccccc3)NC(=O)[C@]23[C@H](OC(C)=O)/C=C/[C@@](C)(O)C(=O)[C@@H](C)C/C=C/[C@H]3[C@@H]1O [Cytochalasin D]
attachment (MDA-MB-231 cells): decreased
concentration giving immediate cell size decrease (MDA-MB-231 cells): ≥ 0.2 µM
concentration giving subsequent cell size increase (MDA-MB-231 cells): ≥ 1 µM
motility (RMS) (MDA-MB-231 cells): decrease

CCN(CC)CCN1C(=O)c2cccc3cc(N)cc(c23)C1=O [NSC 308848]
change in Caco-2 barrier function at 12 hours post-compound application (Caco-2 cells [1]): rapid increase in barrier
ZO-1 levels and distribution (membrane, nucleus) (ZO-1 in Caco-2 cells): Significant increases in ZO-1 in the membrane and nucleus

CN(C)CCN1C(=O)c2cccc3cc(N)cc(c23)C1=O [Amonafide]
change in Caco-2 barrier function at 12 hours post-compound application (Caco-2 cells [1]): rapid increase in barrier
barrier increase (maximum VF 250 Hz) over the 48-hours (Caco-2 cells [1]): largest barrier increase; also recorded: highest observed increase in barrier
time course of barrier increase (Caco-2 cells [2]): rapid increase in barrier; also recorded: rapid and sustained increase
ZO-1 levels and distribution (membrane, nucleus) (ZO-1 in Caco-2 cells): increase in membrane ZO-1 levels, with additional nuclear localization; also recorded: Significant increases in ZO-1 in the membrane and nucleus
